Test results as given in patent publication US20250314668A1, “DNAZYMES FOR SENSING AND IMAGING TARGET MOLECULES” (BOARD OF REGENTS, THE UNIVERSITY OF TEXAS SYSTEM, priority 2024, published 2025).
In the oligonucleotide strings, read from the 5' end, every base follows the letter of its sugar. An asterisk marks phosphorothioate; unmarked linkages are phosphodiester. Other units and linkages are bracketed, terminal groups are in braces. A string of capitals states the bases alone. {3IABkFQ} = Iowa Black FQ quencher; d = 2'-deoxy (DNA); m = 2'-O-methyl

What was measured:
cultured cell lines = test: Iron redox changes in cultured cell lines with ferroptosis inducers and NCOA4 regulators; type: cell-based
HepG2 cells [1] = test: Ferroptosis-induced fluctuations of labile Fe^2+ and Fe^3+ pools (RSL3); type: cell-based
Procedure: Ferroptosis-induced fluctuations of labile Fe^2+ and Fe^3+ pools: HepG2 cells were treated with 1 μM RSL3 in normal MEM at different time points (0, 2, 4, 6, 8, and 10 hours). Then, the cell medium was replaced by iron-deficient MEM containing PEI-ErS or PEI-iErS and incubated in a 37° C., 5% CO2 incubator for another 4 hours. Before imaging, the cells were stained by LysoTracker Red and Hoechst 33258 for 15 min. After washing with PBS, the cells were incubated in iron-deficient MEM during the imaging.

HepG2 cells [2] = test: MTT assay of cytotoxicity of RSL3; type: cell-based; details: 1 μM RSL3, over 8 hours
Procedure: To measure the cytotoxicity of RSL3 to HepG2 cells, a standard MTT assay was used. HepG2 cells were seeded at a density of 15,000 cells per well in 96-well plates. When the cells grew to 80% confluence, the medium was replaced by the normal MEM containing 1 μM RSL3 at different time points (0, 2, 4, 6, 8, and 10 hours). Afterward, the cell medium was replaced by the iron-deficient MEM containing PEI-ErS or PEI-iErS, incubated in a 37° C., 5% CO2 incubator for another 4 hours. The absorbance at 570 nm was measured with a SpectraMax M2 microplate reader to obtain the MTT assay readings. The untreated cells were set as a blank control for normalization.

[3] = Copper sensor signal turn-on and background in solution (inactive controls, upgraded version); type: biochemical; details: for activity of inactive sequences to fluorophore labeled substrates: screening of Cu^2+ DNAzyme inactive sequences
Procedure: FIGS. 14A-14B depict fluorescence resulting of upgraded Cu DNAzyme. The concentration of Cu^2+ is 8 μM, the concentration of ascorbate is 50 μM.
Since the DNAzyme sensors are exposed to various nucleic acid enzymes in biological samples during imaging, it is common to have some extent of sensor degradation and dehybridization, which can increase the background signal. Although the study applied modifications to the end of DNA strands to minimize the exonuclease activities, the background could not be fully removed. Thus, it is critical to estimate the background signal levels for accurate background subtraction and more precise signal quantification.
In this iE design, the catalytic core sequence are converted into complement sequence of the original active sequences.

SH-SY5Y cells = test: Cell death in FDX1 regulated SH-SY5Y cells with Aβ-Cu treatment; type: cell-based; details: FDX1 knocked down cells; 25 µM Tempol or 100 μM Trolox
Source text: FIGS. 21A-21C depict cell death in FDX1 regulated SH-SY5Y cells with Aβ-Cu treatment. […] For all graphs, ****p<0.0001, ***p<0.001, **p<0.01, and ns is p>0.05.
Both oxidative stresses and proteotoxic stresses mediated cuproptosis were also observed in neurons during copper overload by elesclomol (ES), which is a copper ionophore, contributing to neuronal death. The high redox properties of copper can promote the Aβ-induced oxidative stress and subsequent neuronal death. […] The hypothesis is that the property of Aβ can be acted as a copper ionophore is part of what contributes to the pathological effects of cuproptosis in AD. To explore more about whether cuproptosis is related to AD neurodegeneration and understand the role of Aβ-Cu in neuronal death, the viability of SH-SY5Y cells with FDX1 knocked down by RNAi were monitored by stimulating with different CuCl2 concentration and 10 μM Aβ for overnight. […] Cu^2+ ions bound to Aβ are consistently more toxic to neuronal cells than Aβ in the absence of Cu^2+ ions.

[4] = PAGE gel activity assays of Fe^3+ B12 DNAzyme (cleavage site, truncation, pH, buffer, mutation combinations, selectivity); type: biochemical; details: presence of Fe^3+
Source text: RNA Cleavage Dependence of Fe^2+ H5 and Fe^3+ B12 DNAzymes: To investigate the Fe^2+ H5 and Fe^3+ B12 DNAzymes, various cleavage site modifications were incorporated into the substrate strands. The original Fe^2+ H5 DNAzyme was combined with Fe^2+ H5 substrate strands containing either a 2′-hydroxyl (2′OH), 2′-hydrogen (2′H), or 2′O-methyl (2′OMe) at the cleavage site. The original Fe^2+ H5 DNAzyme cleaves the Fe^2+ H5 substrate strand containing 2′OH at the cleavage site in the presence of Fe^2+ under anaerobic conditions. […] Similarly, the original Fe^3+ B12 DNAzyme was combined with Fe^3+ B12 substrate strands containing either 2′OH, 2′H, or 2′OMe at the cleavage site. The original Fe^3+ B12 DNAzyme cleaves the Fe^3+ B12 substrate strand containing 2′OH at the cleavage site in the presence of Fe^3+. […]
Truncations of Fe^2+ H5 and Fe^3+ B12 DNAzymes' Binding Arms: To further investigate the Fe^2+ H5 and Fe^3+ B12 DNAzymes, the DNAzymes were truncated at the 5′ and 3′ ends and tested using the FAM-labeled original substrate strand through activity assays assessed by PAGE gel. […]
Similarly, the pH dependency of Fe^3+ B12 was tested across a range of pH 4.0 to 6.0 with 100 μM FeCl3. […] Fluorescence intensity was monitored over time using a 5′ Alexa Fluor™ 647-labeled substrate and a 3′ Iowa Black™ RQ quencher-labeled DNAzyme at an enzyme-to-substrate ratio of 1:1. […]

HepG2 or Hela cells = test: Simultaneous imaging of labile Fe^2+ and Fe^3+ in living cells treated with Tf or DFO; type: cell-based
Procedure: For delivery of DNAzyme sensors using PEI (66, 67), the corresponding Fe(II)-H5-ErS, Fe(II)-H5-iErS, Fe(III)-B12-ErS, and Fe(III)-B12-iErS (final concentration of 10 μM) were mixed in the Fe^2+ buffer and Fe^3+ buffer separately. The mixtures were annealed at 95° C. for 5 min and stored at room temperature to allow full hybridization. PEI (25 kDa) was dissolved in water at 1 mg/ml. […] The normal cell medium was replaced with iron-deficient medium before the PEI-ErS or PEI-iErS was added to the cells grown in the plates.
After incubating HepG2 cells with PEI-ErS or PEI-iErS complex for 4 hours, cells were washed with phosphate-buffered saline (PBS) twice to remove excess amounts of complexes in medium. Then, the cells were stained by Hoechst 33258 for 15 min. Images were obtained using a Zeiss LSM 880 confocal microscope at 63× oil objective lens with numerical aperture 1.40 and immersion medium Immersol 518 F (Zeiss) at the UIUC IGB Core Facilities. Florescence emission of Hoechst 33258 was measured over 450 to 500 nm with excitation at 401 nm. Fe(II)-H5 was excited by 488 nm and measured over 500 to 550 nm, and Fe(III)-B12 was excited at 633 nm and measured over 640 to 700 nm. A laser power of 67% and pinhole size of 1 […] (AU) were used for the cellular images. Acquired images were analyzed by ImageJ using JACoP (88, 89). No background subtraction, Z-stacks, Gaussian blur filter, or change thresholds were performed for visualizing the figures. For cell fluorescence quantification, the study quantified the average fluorescence signals intensity in five cells (for TurboFect transfected cells) or five LysoTracker-labeled regions in different cells (for PEI transfected cells), per picture and three pictures per group with Image J (88), for the statistical comparison between groups.
Simultaneous imaging of labile Fe^2+ and Fe^3+ in living cells: HepG2 or Hela cells were cultured in glass-bottom dishes until about 70% confluence. The cells were pretreated with iron-deficient MEM containing either 100 μM DFO, 100 μM ferric ammonium citrate, […] holo-Tf, or 50 μM Tf for 4 hours, and then, the medium was replaced with an iron-deficient MEM containing PEI-ErS or PEI-iErS complexes or Opti-MEM containing 1 μl of TurboFect transfection reagent as described above for 4 hours. Before imaging, the cells were stained by LysoTracker Red and Hoechst 33258 for 15 min. After washing with PBS, the cells were incubated in iron-deficient MEM or regular DMEM, respectively, during the imaging.
Data processing and statistical analysis: To have a direct comparison of the iron amount between groups, the background signals were normalized by subtracting the fluorescence signals in iErS groups from the ErS groups (F-F0). No Z-stacks or change thresholds were used for statistical analysis. Graphs were plotted with GraphPad (GraphPad Software Inc.) or Origin (OriginLabs Corporation) and correspond to a single experiment. Bars represent means±SEM. Two-tailed distribution and two-sample equal variance t test were used for analyzing significance. Dixon's Q tests were performed to identify and exclude outliners. *P<0.05, **P<0.01, and ***P <0.001. […] The presented data described the quantification from single representative replicates from those biological replicates.

cells = test: Fe signal changes detected with DNAzyme sensors and flow cytometry; type: cell-based; details: treated with Transferrin
Source text: Preliminary results: The study detected the Fe signal changes with DNAzyme sensors and flow cytometry.

[5] = 5 μM Tf group, iron-deficient medium

In the case of `COC(=O)c1ccc([C@@H]2c3[nH]c4ccccc4c3C[C@@H](C(=O)OC)N2C(=O)CCl)cc1` [RSL3, RAS-selective lethal 3], the “Fe^2+ and Fe^3+ during induced ferroptosis” value (cultured cell lines) was “increased”, the “Fe^3+/Fe^2+ ratio during induced ferroptosis” value (cultured cell lines) was “decreased” and the “increase of Fe^2+” value (HepG2 cells [1]; 1 μM RSL3, from 0 to 2 hours, LysoTracker-labeled region) was 2.3 fold. The “increase of Fe^3+” value (HepG2 cells [1]; 1 μM RSL3, from 0 to 4 hours, LysoTracker-labeled region) was 2.8 fold, the “increase of Fe^2+” value (HepG2 cells [1]; 1 μM RSL3, from 2 to 4 hours, LysoTracker-labeled region) was 4.3 fold and the “Fe^3+/Fe^2+ ratio (Fe redox) during ferroptosis” value (HepG2 cells [1]; RSL3-induced ferroptosis, endo-lysosomes) was “continuous decrease”. For the same compound, the “Fe^2+ and Fe^3+ levels in later stage of ferroptosis” value (HepG2 cells [1]; after 4 hours) was “both iron levels decreased” and the MTT assay result (HepG2 cells [2]) was “cell death”.
For “Cu2 iE polyT 3IBFQ: inactive enzyme strand (TTTCGCCATCTTCTTTTTTTTATAGTGACT; DNA, 3' {3IABkFQ}, backbone not given here)”, the “background signal of inactive sequence” value ([3]; both fluorophore and quencher labels) was “minimum background signal”.
For `CC1(C)CC(O)CC(C)(C)N1[O]` [Tempol], the “rescue of Aβ-Cu induced cell death by ROS scavenger” value (SH-SY5Y cells) was “fail to fully rescue”.
In the case of “Cu2 iE complement: inactive enzyme strand (TTTCGCCATCTTCTGGTCCTTATAGTGACT; DNA, backbone not given here; further chemistry not fully specified)”, the “activity of inactive sequences to fluorophore labeled substrates” value [3] was “minimum activity”.
For “Fe^3+ B12 Original Substrate (2′H) (CTCTATTAGGGAGACTCGCATGCCGC; DNA, backbone not given here)”, the “cleavage by the original Fe^3+ B12 DNAzyme” value [4] was “does not cleave”.
With “Fe^3+ B12 Original Substrate (2′OMe) (dCdTdCdTdAdTdTdAmGdGdGdAdGdAdCdTdCdGdCdAdTdGdCdCdGdC)” the “cleavage by the original Fe^3+ B12 DNAzyme” value [4] was “does not cleave”.
In the case of “Cu2 iE polyT: inactive enzyme strand (TTTCGCCATCTTCTTTTTTTTATAGTGACT; DNA, backbone not given here; further chemistry not fully specified)”, the “activity of inactive sequences to fluorophore labeled substrates” value [3] was “minimum activity”.
With `Cc1c(C)c2c(c(C)c1O)CCC(C)(C(=O)O)O2` (centres unmarked) [Trolox] the “rescue of Aβ-Cu induced cell death by ROS scavenger” value (SH-SY5Y cells) was “fail to fully rescue”.
With transferrin [Tf] the “increase of Fe^2+ sensor signal” value (HepG2 or Hela cells; [5]) was 1.9 fold, the “increase of Fe^3+ sensor signal” value (HepG2 or Hela cells; [5]) was 1.6 fold and the “increase for both Fe^3+ and Fe^2+” value (HepG2 or Hela cells; normal cell media) was “around 4 fold”. For the same compound, the “change of the Fe^3+/Fe^2+ ratio” value (HepG2 or Hela cells; treated cells) was “No significant change” and the “cells with elevated fluorescence intensity (moved from Q4 to Q2)” value (cells) was “More than 20%”.
